This note sets out measurements from patent publication US9096835B2, “DNA polymerase” (Medical Research Council, priority 2003, dated 2015).

Common to all, as to assay type: biochemical
Test [1] has as its system template containing 5-Nitroindole. Briefly: Primer extension opposite 5-nitroindole. Particulars: 50° C., cell lysate, identical conditions as 4D11 and 5D4; data not shown. The protocol: 50 pmol of ^32P-labelled primer and 100 pmol of template in a volume of 44 μl were annealed in 1× Taq buffer. 4D11 or 5D4 polymerase as cell lysate (6 μl) was added and reactions were incubated at 50° C. for 15 minutes followed by addition of one dNTP (1 μl in total volume of 50 μl, final dNTP concentration 40 μM). 8 μl samples were taken at various time points and added to 8 μl stop solution (7M urea, 100 mM EDTA containing xylene cyanol F). At the end of the time course the remaining 3 dNTPs were added (final concentration each dNTP 40 μM) and reactions incubated at 50° C. for a further 30 minutes. Reaction samples were electrophoretically separated using 20% polyacrylamide gels at 25 W for 4 hours. The resultant gels were dried and scanned using a phosphorimager (Molecular Dynamics). Data was processed using the program ImageQuant (Molecular Dynamics).

For test [2], the system named is phage λ DNA template. In words: Long PCR. The conditions noted are these: standard PCR conditions, no auxiliary polymerases or processivity factors. The protocol:
A PCR assay was used to screen and rank clones. Briefly, clones were normalized for activity in PCR with matched primers 3, 4 and activity with mismatched primers 1 and 2 (1 μM each) determined at minimal cycle number (15-25 cycles). Extension capability for different mismatches was determined by the same assay using mismatch primers 2 (C•C mismatch), 5 (A•A mismatch), 6 (G•G mismatch), 7 (G•A mismatch) with matched primer 3 or primer 1 (A•G mismatch) with matched primer 4. Incorporation of unnatural substrates in 50 cycle PCR was carried out using standard conditions and 50 μM […] dNTPs (Promega) or 50 μM FITC-12-dATP (Perkin-Elmer), Rhodamine-5-dUTP (Perkin-Elmer) or Biotin-16-dUTP (Roche) with equivalent amounts of the other 3 dNTPs (all 50 μM). Long PCR was carried out using a two-step cycling protocol as described (22) 94° C. for 2 minutes, followed by 20 cycles of (94° C. 15 sec, 68° C. 30 min) using 5 ng of phage λ DNA (New England Biolabs) template and either primers 9, 10, 11 with primer 12 or primer 13 with primers 10, 14.

In test [3] the test system is abasic sites and 5-hydroxy hydantoins. In words: Hairpin ELISA lesion bypass screen. The conditions noted are these: ELISA based activity screen. The source says:
The below protocol is a sensitive method to measure polymerase activity both for the incorporation of unnatural nucleotide substrates (added to the reaction mixture) or the extension or replication of unnatural nucleotide substrates (incorporated as part of the hairpin oligo).
The assay comprises a hairpin oligonucleotide which constitutes both primer and template in one. In contains as part of the hairpin a biotinylated dU residue, which allows capture of the hairpin oligonucleotide on streptavidin-coated surfaces.
The oligonucleotide folds up into a hairpin with a 5′ overhang, which serves as the template strand for the polymerase (typical sequence: 5′-AGCTACCATGCCTGCACGCAGTCGGCATCCGTCGCGACCACG TT5 TTCGTGGTCGCGACGGATGCCG-3′ (SEQ ID NO: 52), bases involved in hairpin formation are underlined, 3′ base is in bold, 5=dU-biotin).
Extension reactions are carried out in the presence of small amounts of a labelled nucleotide typically DIG-16-dUTP. Product is captured (for example on a streptavidin coated ELISA plate) and incorporation of labelled nucleotide into the product strand is measured (using for example an anti-DIG antibody) and taken as a measure of polymerase activity. […]
(In general: ELISA stands for enzyme-linked immunosorbent assay.)

A value given as a limit tells only on which side of the number the result lay.

Regarding “wtTaq: Thermus aquaticus (Taq) wild type DNA polymerase [reference compound]”, in test [1], the “extension opposite 5-nitroindole” value was “almost undetectable extension reactions”. Further, the “size of targets amplified in long PCR” value in test [2] is on record as at most 9 kb; in test [2] (listed as WtTaq), at most 8.8 kb.

B1: 3D1: third round clone, four mismatch extension; SEQ ID NO: 98 (protein)
chain: MAMLPLFEPKGRVLLVDGHHLAYRTFFALKGPTTSRGEPVQVVYGFAKSLLKALKEDGYKAVFVVFDAKAPSFRHKAYEAYRAGRAPTPEDFPRQLALIKELVDLLGFTRLEVPGYEADDVLATLAKKAEKEGYEVRILTADRGLYQLVSDRVAVLHPEGHLITPEWLWEKYGLRPEQWVDFRALVGDPSDNLPGVKGIGEKTALKLLKEWGSLENLLKNLDRVKPENVREKIKAHLEDLRLSLELSRVRTDLPLEVDLAQRREPDREGLRAFLERLEFGSLFHEFGLLESPKALEEAPWPPPEGAFVGFVLSRKEPMWADLLALAAARGGRVHRAPEPYKALRDLKEARGLLAKDLSVLALREGLGLPPGDDPMLLAYLLDPSNTTPEGVARRYGGEWTEEAGERAALSERLFANLWGRLEGEERLLWLYREVERPLSAVLAHMEATGVRLDVAYLRALSLEVAEEIARLEAEVFRLAGHPFNLNSRDQLEMVLFDELRLPALGKTQKTGKRSTSAAVLEALREAHPIVEKILQYRELTKLKSTYIDPLSDLIHPRTGRLHTRFNQTATATGRLSSSDPNLQNIPVRTPLGQRIRRAFIAEEGWLLVVLDYSQIELRVLAHLSGDENLIRVFQEGRDIHTETASWMFGVPREAVDPLMRRAAKTINFGVLYGMSAHRLSQELAIPYEEAQAFIERYFQSFPKVRAWIEKTLEEGRRRGYVETLFGRRRYVPDLEARVKSVREAAERMAFNMPVQGTAADLMKLAMVKLFPRLGETGARMLLQVHDELVLEAPKERAEAVARLAKEAMEGVYPLAVPLEVEVGIGEDWLSAKG
modifications: Mutant Taq polymerase
For the molecule B1, the “proficiency at lesion bypass compared with wild type Taq” value in test [3] is on record as “up to two orders of magnitude”.

B2: 3A10: third round clone, abasic site bypass; SEQ ID NO: 86 (protein)
chain: MAMLPLFEPKGRVLLVDGHHLAYRTFFALKGLTTSRGEPVQVVYGFAKSLLKALKEDGYKAVFVVFDAKAPSFRHKAYEAYRAGRAPTPQDFPRQLALIKELVDLLGFTRLEVPGYEADDVLATLAKKAEKEGYEVRILTADRGLYQLVSDRVAVLHPEGHLITPEWLWEKYGLRPEQWVDFRALVGDPSDNLPGVKGIGEKTALKLLKEWGSLENLLKNLDRVKPENVREKIKAHLEDLRLSLELSRVRTDLPLEVDLAQGREPDREGLRAFLERLEFGSLLHEFGLLESPKALEEAPWPPPEGAFVGFVLSRKEPMWADLLALAAARGGRVHQAPEPYKALRDLKEARGLLAKDLSVLALREGLGLPPGDDPMLLAYLLDPSNTTPEGVARRYGGEWTEEAGERAALSERLFANLWGRLEGEERLLWLYREVERPLSAVLAHMETTGVRLDVAYLRALSLEVAEEIARLEAEVFRLAGRPFNLNSRDQLERVLFDELGLPAIGKTEKTGKRSTSAAVLEALREAHPIVEKILQYRELTKLKSTYIDPLPDLIHPRTGRLHTRFNQTATATGRLSSSDPNLQNIPVRTPLGQRIRRAFIAEEGWLLVVLDYSQMELRVLAHLSGDENLIRVFQEGKDIHTQTASWMFGVPPEAVDPLMRRAAKTVNFGVLYGMSAHRLSQELSIPYEEAVAFIERYFQSFPKVRAWIEKTLEEGRRRGYVETLFGRRRYVPDLNARMKSVRGAAERMAFNMPVQGTAADLMKLAMVKLFPRLREMGARMLLQVHDELLLEAPQARAEEVAALAKEAMEKAYPLAVPLEVEVGIGEDWLSAKE
modifications: Mutant Taq polymerase
In the case of B2, the “proficiency at lesion bypass compared with wild type Taq” value in test [3] was “up to two orders of magnitude”.
